Experimental data from paper PMC11992225, “Antibacterial compounds against non-growing and intracellular bacteria” (npj Antimicrobials and Resistance, 2025).
Read-outs that look alike come from different tables or passages of the source.

Assays:
[1] = test system: P. aeruginosa DSM1117; assay: MIC, standard microdilution assay, growing P. aeruginosa; format: cell-based, Pseudomonas aeruginosa; details: Pseudomonas aeruginosa, DSM1117, pH 7.4, read-out: MIC (μM) CA-MHB
Outline: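 Standard microdilution protocol, triplicate wells. For S. flexneri the growth medium is TSB. The other three strains are grown in HEPES-buffered (40 mM, pH 7.4) CA-MHB, and UPEC is also run at pH 5.5 in LPM containing 30 mM MES.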

[2] = test system: non-growing UPEC CFT073; assay: Dilution-regrowth assay (screen, hit validation, dose-response) on stationary-phase UPEC; format: cell-based, Escherichia coli; details: for OD600 at 6hr, Mean: after dilution into drug-free medium; for EC50: Escherichia coli
Outline: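 Regrowth (OD600 after 6 h, 37 °C) of diluted non-growing CFT073, following 24 h compound treatment of 24 h stationary cultures, defines activity relative to untreated control. Screen at 20 µM, validation at 20, 10, 5 µM (duplicates), dose–response in three biological replicates fitted by five-parameter logistic.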

[3] = test system: non-growing UPEC CFT073; assay: Dose-dependent killing analysis (CFU spot-plating) of stationary-phase UPEC; format: cell-based, Escherichia coli
Experimental: To differentiate between these scenarios, we used CFU counting by agar plating to assess the bactericidal effect on non-growing bacteria. […] Conversely, if no significant reduction in CFU is observed, the regrowth delay is due to PAE without killing. […] Fluoroquinolones are known to cause PAE after treatment of growing bacterial cultures.
For survival analysis, bacteria were cultivated as described for the dose–response dilution-regrowth assay. Assays with UPEC were conducted at the CBCS screening facility using 96-well plates with a 200 μl sample volume, and compounds were dispensed using the Echo® (Labcyte) system. P. aeruginosa and S. aureus samples were treated according to the protocol used for the dilution-regrowth experiments. Treated samples were serially diluted 10-fold in PBS, and 10 μl drops were spot-plated onto rectangular LB agar plates using either a Beckman NXP robot (for UPEC) or an Integra VIAFLO96 electronic pipette (for P. aeruginosa and S. aureus). The LB agar plates were incubated overnight at 37 °C and scanned. Colonies were counted at the spots of the lowest dilution where individual colonies could be accurately distinguished. Each colony was manually marked on a separate image layer using the GNU Image Manipulation Program, and counted using NIST’s Integrated Colony Enumerator (NICE 1.4) software. The experiments were performed in three biological replicates.

[4] = E. coli in 1:4 CA-MHB (pH 7.4), 0.25 μM
[5] = E. coli in 1:4 CA-MHB (pH 7.4), 0.5 μM
[6] = E. coli in 1:4 CA-MHB (pH 7.4), 1 μM
[7] = E. coli in 1:4 CA-MHB (pH 7.4), 2.5 μM
[8] = E. coli in 1:4 CA-MHB (pH 7.4), 5 μM
[9] = E. coli in 1:4 CA-MHB (pH 7.4), 10 μM
[10] = E. coli in LPM (pH 5.5), 0.25 μM
[11] = E. coli in LPM (pH 5.5), 0.5 μM
[12] = E. coli in LPM (pH 5.5), 2.5 μM

CS[C@H]1SC[C@H]2C(=O)N(C)[C@@H](C(C)C)C(=O)OC[C@@H](NC(=O)c3cnc4ccccc4n3)C(=O)N[C@@H](C)C(=O)N(C)[C@@H]1C(=O)N(C)[C@@H](C(C)C)C(=O)OC[C@@H](NC(=O)c1cnc3ccccc3n1)C(=O)N[C@@H](C)C(=O)N2C [Echinomycin]
MIC [1]: > 80 µM
OD600 at 6hr, Mean [2, 4]: 0.627
OD600 at 6hr, Mean [2, 5]: 0.601
OD600 at 6hr, Mean [2, 6]: 0.561
OD600 at 6hr, Mean [2, 7]: 0.340
OD600 at 6hr, Mean [2, 8]: 0.110
OD600 at 6hr, Mean [2, 9]: 0.090
OD600 at 6hr, Mean ([2]; E. coli in 1:4 CA-MHB (pH 7.4), 30 μM): 0.091
OD600 at 6hr, Mean [2, 10]: 0.602
OD600 at 6hr, Mean [2, 11]: 0.564
OD600 at 6hr, Mean ([2]; E. coli in LPM (pH 5.5), 1 μM): 0.465
OD600 at 6hr, Mean [2, 12]: 0.288
OD600 at 6hr, Mean ([2]; E. coli in LPM (pH 5.5), 5 μM): 0.215
OD600 at 6hr, Mean ([2]; E. coli in LPM (pH 5.5), 10 μM): 0.181
OD600 at 6hr, Mean ([2]; E. coli in LPM (pH 5.5), 30 μM): 0.160
EC50 ([2]; pH 5.5): 1530 nM
EC50 ([2]; pH 5.5, read-out: EC50 (regrowth inhibition curve, Fig. S4)): 1520 nM
EC50 ([2]; pH 7.4): 2400 nM
EC50 ([2]; pH 7.4, read-out: EC50 (regrowth inhibition curve, Fig. S4)): 2390 nM
Log10(CFU/ml), Replicate #1 [3, 4]: 9.431 Log10(CFU/ml)
Log10(CFU/ml), Replicate #2 [3, 4]: 8.699 Log10(CFU/ml)
Log10(CFU/ml), Replicate #3 [3, 4]: 8.505 Log10(CFU/ml)
Δlog10(CFU/ml) ([3]; E. coli in 1:4 CA-MHB (pH 7.4), 0.25 μM, average killing vs before treatment (8.977)): 0.099 log10(CFU/ml)
Log10(CFU/ml), Replicate #1 [3, 5]: 9.415 Log10(CFU/ml)
Log10(CFU/ml), Replicate #2 [3, 5]: 9.079 Log10(CFU/ml)
Log10(CFU/ml), Replicate #3 [3, 5]: 8.447 Log10(CFU/ml)
Δlog10(CFU/ml) ([3]; E. coli in 1:4 CA-MHB (pH 7.4), 0.5 μM, average killing vs before treatment (8.977)): -0.003 log10(CFU/ml)
Log10(CFU/ml), Replicate #1 [3, 6]: 9.380 Log10(CFU/ml)
Log10(CFU/ml), Replicate #2 [3, 6]: 9.114 Log10(CFU/ml)
Log10(CFU/ml), Replicate #3 [3, 6]: 8.398 Log10(CFU/ml)
Δlog10(CFU/ml) ([3]; E. coli in 1:4 CA-MHB (pH 7.4), 1 μM, average killing vs before treatment (8.977)): 0.013 log10(CFU/ml)
Log10(CFU/ml), Replicate #1 [3, 7]: 9.398 Log10(CFU/ml)
Log10(CFU/ml), Replicate #2 [3, 7]: 8.699 Log10(CFU/ml)
Log10(CFU/ml), Replicate #3 [3, 7]: 8.398 Log10(CFU/ml)
Δlog10(CFU/ml) ([3]; E. coli in 1:4 CA-MHB (pH 7.4), 2.5 μM, average killing vs before treatment (8.977)): 0.146 log10(CFU/ml)
Log10(CFU/ml), Replicate #1 [3, 8]: 9.362 Log10(CFU/ml)
Log10(CFU/ml), Replicate #2 [3, 8]: 8.477 Log10(CFU/ml)
Log10(CFU/ml), Replicate #3 [3, 8]: 8.477 Log10(CFU/ml)
Δlog10(CFU/ml) ([3]; E. coli in 1:4 CA-MHB (pH 7.4), 5 μM, average killing vs before treatment (8.977)): 0.205 log10(CFU/ml)
Log10(CFU/ml), Replicate #1 [3, 9]: 8.342 Log10(CFU/ml)
Log10(CFU/ml), Replicate #2 [3, 9]: 8.079 Log10(CFU/ml)
Log10(CFU/ml), Replicate #3 [3, 9]: 8.342 Log10(CFU/ml)
Δlog10(CFU/ml) ([3]; E. coli in 1:4 CA-MHB (pH 7.4), 10 μM, average killing vs before treatment (8.977)): 0.723 log10(CFU/ml)
Log10(CFU/ml), Replicate #1 [3, 10]: 6.778 Log10(CFU/ml)
Log10(CFU/ml), Replicate #2 [3, 10]: 7.114 Log10(CFU/ml)
Log10(CFU/ml), Replicate #3 [3, 10]: 8.398 Log10(CFU/ml)
Δlog10(CFU/ml) ([3]; E. coli in LPM (pH 5.5), 0.25 μM, average killing vs before treatment (7.350)): -0.080 log10(CFU/ml)
Log10(CFU/ml), Replicate #1 [3, 11]: 6.954 Log10(CFU/ml)
Log10(CFU/ml), Replicate #2 [3, 11]: 6.954 Log10(CFU/ml)
Log10(CFU/ml), Replicate #3 [3, 11]: 8.000 Log10(CFU/ml)
Δlog10(CFU/ml) ([3]; E. coli in LPM (pH 5.5), 0.5 μM, average killing vs before treatment (7.350)): 0.048 log10(CFU/ml)
Log10(CFU/ml), Replicate #1 ([3]; E. coli in LPM (pH 5.5), 1 μM): 6.954 Log10(CFU/ml)
Log10(CFU/ml), Replicate #2 ([3]; E. coli in LPM (pH 5.5), 1 μM): 7.255 Log10(CFU/ml)
Log10(CFU/ml), Replicate #3 ([3]; E. coli in LPM (pH 5.5), 1 μM): 8.301 Log10(CFU/ml)
Δlog10(CFU/ml) ([3]; E. coli in LPM (pH 5.5), 1 μM, average killing vs before treatment (7.350)): -0.153 log10(CFU/ml)
Log10(CFU/ml), Replicate #1 [3, 12]: 6.954 Log10(CFU/ml)
Log10(CFU/ml), Replicate #2 [3, 12]: 6.845 Log10(CFU/ml)
Log10(CFU/ml), Replicate #3 [3, 12]: 8.230 Log10(CFU/ml)
Δlog10(CFU/ml) ([3]; E. coli in LPM (pH 5.5), 2.5 μM, average killing vs before treatment (7.350)): 0.007 log10(CFU/ml)
Log10(CFU/ml), Replicate #1 ([3]; E. coli in LPM (pH 5.5), 5 μM): 6.778 Log10(CFU/ml)
Log10(CFU/ml), Replicate #2 ([3]; E. coli in LPM (pH 5.5), 5 μM): 7.342 Log10(CFU/ml)
Log10(CFU/ml), Replicate #3 ([3]; E. coli in LPM (pH 5.5), 5 μM): 8.204 Log10(CFU/ml)
Δlog10(CFU/ml) ([3]; E. coli in LPM (pH 5.5), 5 μM, average killing vs before treatment (7.350)): -0.091 log10(CFU/ml)
Log10(CFU/ml), Replicate #1 ([3]; E. coli in LPM (pH 5.5), 10 μM): 6.279 Log10(CFU/ml)
Log10(CFU/ml), Replicate #2 ([3]; E. coli in LPM (pH 5.5), 10 μM): 6.362 Log10(CFU/ml)
Log10(CFU/ml), Replicate #3 ([3]; E. coli in LPM (pH 5.5), 10 μM): 6.602 Log10(CFU/ml)
Δlog10(CFU/ml) ([3]; E. coli in LPM (pH 5.5), 10 μM, average killing vs before treatment (7.350)): 0.936 log10(CFU/ml)
